Measured values reported in patent US20260256747A1, “ARYL-TRIAZOLYL AND RELATED GPR84 ANTAGONISTS AND USES THEREOF” (Liminal BioSciences Limited, priority 2022, published 2026).

Biological target: T1, human GPR84 receptor (Homo sapiens, UniProt Q9NQS5)
T1 construct: host or cells: HEK293 cells, transient transfection
Experiment: Gαi biosensor BRET assay in HEK293 cells transfected with GPR84, stimulated with the GPR84 agonist ZQ-16
Format: cell-based
Conditions: 200 nmol/L ZQ-16; for inhibition at 2 µM / inhibition at 10 µM: HEK293, single concentration; for inhibition at 2 µM: concentration class A = 2 μM; for inhibition at 10 µM: concentration class F = 10 μM
From the text: Background—The following assays can be used for determination of GPR84 activation in living HEK293 cells. The Gαi BRET biosensor (Gagnon et al., 2018; Gales et al., 2006. Nat Struct Mol Biol. 13, 778-86; Saulieres et al., 2012. Nat Chem Biol. 8, 622-30) allows to directly monitor GPR84-mediated activation of Gαi. The Gαi biosensor consists of a Rluc8-tagged Gαi2 subunit, a GFP10-tagged Gγ2 subunit, and an untagged GB1. Agonist stimulation and GPR84 activation triggers a physical separation between the RLuc8-Gαi donor and the GFP10-Gγ2 acceptor, resulting in a decrease in BRET signal whose amplitude is correlated to ligand efficacy (Gales et al., 2006). Moreover, signaling functions of GPCRs are tightly regulated by endocytosis, the targeting of receptors to endosomes and their sorting to lysosomes or recycling to the plasma membrane. The early endosomes (EEs) trafficking assay (Namkung et al., 2016. Nat Commun. 7, 12178) uses Rluc8-tagged GPR84 and Renilla GFP (rGFP) attached to the FYVE domain from human endofin/zinc finger FYVE domain-containing protein 16, which binds phosphatidylinositol 3-phosphate in EEs. Agonist stimulation of GPR84-Rluc8 leads to trafficking of the receptor to EEs, and ensuing increase of the donor concentration relative to the rGFP-FYVE acceptor anchored in the same cellular compartment, and thus results in an increase in BRET signal.
Plasmids—The cDNA clones for human GPR84 receptor, human Gαi2, Gβ1, and Gγ2 were obtained from the cDNA Resource Center (www.cdna.org). GFP10 (F64L, S147P, S202F and H231L variant of Aequorea victoria Green Fluorescent Protein) gBlocks gene fragments (Integrated DNA Technologies, IA) and linker were inserted in frame at the N-terminus of human Gγ2. Rluc8 (A^55T, Cl24A, S130A, K136R, A^143M, M185V, M253L, and S287L variant of the Renilla reniformis luciferase) gBlocks gene fragment was inserted with linkers in frame in between residues 91 and 92 of Gαi2 or at the C-terminus of GPR84. The FYVE domain from human endofin (residues Q739 to K806) attached in frame at the C terminus of a humanized Renilla GFP (rGFP), were synthesized as gBlocks gene fragments.
Bioluminescence Resonance Energy Transfer (BRET) Measurement-HEK293 cells were transfected with GPR84-Rluc8 and rGFP-FYVE for the EEs trafficking biosensor or with GPR84, Gαi2-Rluc8, GFP10-Gγ2, and Gβ1 for the Gαi biosensor. The following day, transiently transfected cells were seeded in 96-well white clear bottom microplates coated with poly-D-lysine and left in culture for 24 hours. Cells were washed once with Tyrode's buffer (140 mmol/L NaCl, 1 mmol/L CaCl2, 2.7 mmol/L KCl, 0.49 mmol/L MgCl2, 0.37 mmol/L NaH2PO4, 5.6 mmol/L glucose, 12 mmol/L NaHCO3, and 25 mmol/L HEPES, pH 7.5) before performing assays in Tyrode's buffer. Test compounds were incubated with cells for 5 (Gai) or 15 (EEs) minutes at 37° C. before addition of 200 nmol/L of the GPR84 agonist ZQ-16 (2-(Hexylthio)-6-hydroxy-4 (3H)-pyrimidinone) for 5 minutes at room temperature (Gai) or 30 minutes at 37° C. (EEs). The Rluc8 substrate coelenterazine 400A (Prolume, Lakeside, AZ) was added at a final concentration of 5 μmol/L and BRET readings were collected using an Infinite M1000 microplate reader (Tecan, Morrisville, NC). BRET2 readings between Rluc8 and GFP10 or rGFP were collected by sequential integration of the signals detected in the 370 to 450 nm (Rluc8) and 510 to 540 nm (GFP10, rGFP) windows. The BRET signal was calculated as the ratio of light emitted by acceptor (GFP10, rGFP) over the light emitted by donor (Rluc8). The values were corrected to net BRET by subtracting the background BRET signal obtained in cells transfected with Rluc8 constructs alone. Ligand-promoted net BRET values were calculated by subtracting vehicle-induced net BRET from ligand-induced net BRET.

T1 sequence (Q9NQS5 whole entry): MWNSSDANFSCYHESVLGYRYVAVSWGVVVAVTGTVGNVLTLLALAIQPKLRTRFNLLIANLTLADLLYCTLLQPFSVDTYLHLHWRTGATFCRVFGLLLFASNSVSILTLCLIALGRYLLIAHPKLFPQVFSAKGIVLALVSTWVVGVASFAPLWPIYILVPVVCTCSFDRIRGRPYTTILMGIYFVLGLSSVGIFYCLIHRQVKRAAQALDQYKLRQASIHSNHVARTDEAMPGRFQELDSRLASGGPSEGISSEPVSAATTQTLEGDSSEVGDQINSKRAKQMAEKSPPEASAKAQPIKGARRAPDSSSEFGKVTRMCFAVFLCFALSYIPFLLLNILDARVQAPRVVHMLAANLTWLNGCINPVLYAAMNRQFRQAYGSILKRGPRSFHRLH

Row | SMILES | IC50 | inhibition at 2 µM | inhibition at 10 µM
1 | C(#CC1CC1)c1cnc(-c2cnn(CC3OCC4(CC4)CO3)c2)c(OC2CC2)c1 [Compound I-218] | 300 to 1000 nM | > 75% | –
2 | Cc1cc(C#CC2CC2)ccc1-c1nnc(-c2cn(CC3OCC4(CC4)CO3)nn2)o1 [Compound I-220] | 300 to 1000 nM | – | > 75%
3 | CCCOc1cc(C#CC2CC2)cnc1-c1cn(CC(=O)N(C)C)nn1 [Compound I-221] | – | – | 50 to 75%
4 | Cn1nnnc1-c1cnc(-c2cn(CC3OCC4(CC4)CO3)nn2)c(OC2CC2)c1 [Compound I-222] | – | – | ≤ 25%
5 | Cn1nnc(-c2cnc(-c3cn(CC4OCC5(CC5)CO4)nn3)c(OC3CC3)c2)n1 [Compound I-223] | ≤ 300 nM | > 75% | –
6 | c1nc(-c2cn(CC3OCC4(CC4)CO3)nn2)c(OC2CC2)cc1-c1cnn[nH]1 [Compound I-224] | ≤ 300 nM | > 75% | –
7 | Cn1nncc1-c1cnc(-c2cn(CC3OCC4(CC4)CO3)nn2)c(OC2CC2)c1 [Compound I-225] | – | – | 50 to 75%
8 | Cn1ncc(-c2cnc(-c3cn(CC4OCC5(CC5)CO4)nn3)c(OC3CC3)c2)n1 [Compound I-226] | ≤ 300 nM | > 75% | –
9 | Cn1cc(-c2cnc(-c3cn(CC4OCC5(CC5)CO4)nn3)c(OC3CC3)c2)nn1 [Compound I-227] | ≤ 300 nM | > 75% | –
10 | c1ncc(-c2cnc(-c3cn(CC4OCC5(CC5)CO4)nn3)c(OC3CC3)c2)[nH]1 [Compound I-228] | ≤ 300 nM | > 75% | –
11 | c1c[nH]c(-c2cnc(-c3cn(CC4OCC5(CC5)CO4)nn3)c(OC3CC3)c2)n1 [Compound I-229] | – | – | ≤ 25%
12 | Cn1cncc1-c1cnc(-c2cn(CC3OCC4(CC4)CO3)nn2)c(OC2CC2)c1 [Compound I-230] | – | – | 50 to 75%
13 | CN(C)C(=O)CN(C)c1cnc(-c2cn(CC3OCC4(CC4)CO3)nn2)c(OC2CC2)c1 [Compound I-231] | – | – | ≤ 25%
14 | CN(C)C(=O)Cn1cc(-c2ncc(-c3nnn[nH]3)cc2OC2CC2)nn1 [Compound I-232] | – | – | 50 to 75%
15 | O=C(Cn1cc(-c2ncc(-c3nnn[nH]3)cc2OC2CC2)nn1)N1CCCC1 [Compound I-233] | – | – | 25 to 50%
16 | C(#CC1CC1)Cn1cc(-c2ncc(-c3nnn[nH]3)cc2OC2CC2)nn1 [Compound I-234] | – | – | > 75%
17 | c1cc(-c2cnc(-c3cn(CC4OCC5(CC5)CO4)nn3)c(OC3CC3)c2)n[nH]1 [Compound I-235] | ≤ 300 nM | > 75% | –
18 | c1n[nH]cc1-c1cnc(-c2cn(CC3OCC4(CC4)CO3)nn2)c(OC2CC2)c1 [Compound I-236] | 300 to 1000 nM | – | > 75%
19 | Cn1nccc1-c1cnc(-c2cn(CC3OCC4(CC4)CO3)nn2)c(OC2CC2)c1 [Compound I-237] | – | – | 50 to 75%
20 | Cn1ccc(-c2cnc(-c3cn(CC4OCC5(CC5)CO4)nn3)c(OC3CC3)c2)n1 [Compound I-238] | ≤ 300 nM | > 75% | –
21 | Cn1cc(-c2cnc(-c3cn(CC4OCC5(CC5)CO4)nn3)c(OC3CC3)c2)cn1 [Compound I-239] | ≤ 300 nM | – | > 75%
22 | CN(C)C(=O)Cn1cc(-c2ncc(C#N)cc2OC2CC2)nn1 [Compound I-240] | – | – | ≤ 25%
23 | N#Cc1cnc(-c2cn(CC(=O)N3CCCC3)nn2)c(OC2CC2)c1 [Compound I-241] | – | – | 25 to 50%
24 | O=C(Cn1cnc(-c2ncc(C#CC3CC3)cc2OC2CC2)c1)N1CCCC1 [Compound I-242] | – | – | 50 to 75%
25 | O=C(Cn1cncc1-c1ncc(C#CC2CC2)cc1OC1CC1)N1CCCC1 [Compound I-243] | – | – | ≤ 25%

Row | SMILES | IC50 | inhibition at 2 µM | inhibition at 10 µM
26 | O=C(Cn1cc(-c2ncc(C#CC3CC3)cc2OC2CC2)nn1)N1CC[C@H](O)C1 [Compound I-244] | 1000 to 3000 nM | – | > 75%
27 | O=C(Cn1cc(-c2ncc(C#CC3CC3)cc2OC2CC2)nn1)N1CC[C@@H](O)C1 [Compound I-245] | 1000 to 3000 nM | – | > 75%
28 | O=C(Cn1cc(-c2ncc(C#CC3CC3)cc2OC2CC2)nn1)N1C[C@@H](O)[C@H](O)C1 [Compound I-246] | – | – | 50 to 75%
29 | O=C(Cn1cc(-c2ncc(C#CC3CC3)cc2OC2CC2)nn1)N1C[C@H](O)[C@@H](O)C1 [Compound I-247] | – | – | > 75%
30 | O=C(Cn1cc(-c2ncc(C#CC3CC3)cc2OC2CC2)nn1)N1C[C@@H](O)[C@@H](O)C1 [Compound I-248] | – | – | > 75%
31 | O=C(Cn1cc(-c2nc(O)c(C#CC3CC3)cc2OC2CC2)nn1)N1CCCC1 [Compound I-249] | – | ≤ 25% | –
32 | O=C(Cn1cc(-c2ncc(C#CC3(O)CC3)cc2OC2CC2)nn1)N1CCCC1 [Compound I-250] | – | – | > 75%
33 | CN(C)C(=O)Cn1cc(-c2nc(O)c(C#CC3CC3)cc2OC2CC2)nn1 [Compound I-251] | – | ≤ 25% | –
34 | CN(C)C(=O)Cn1cc(-c2ncc(C#CC3(O)CC3)cc2OC2CC2)nn1 [Compound I-252] | – | – | > 75%
35 | O=C(Cn1cc(-c2c(OC3CC3)cc(C#CC3CC3)c[n+]2[O-])nn1)N1CCCC1 [Compound I-253] | 1000 to 3000 nM | – | > 75%
36 | C(#CC1CC1)c1ccc(-c2nnc(-c3cn(CC4OCC5(CC5)CO4)nn3)o2)cc1 [Compound I-254] | – | – | 25 to 50%
37 | Cc1ccc(C#CC2CC2)cc1-c1nnc(-c2cn(CC3OCC4(CC4)CO3)nn2)o1 [Compound I-255] | – | – | 50 to 75%
38 | Cc1cc(C#CC2CC2)cnc1-c1nnc(-c2cn(CC3OCC4(CC4)CO3)nn2)o1 [Compound I-256] | – | – | ≤ 25%
39 | Fc1cc(C#CC2CC2)ccc1-c1nnc(-c2cn(CC3OCC4(CC4)CO3)nn2)o1 [Compound I-257] | – | – | > 75%
40 | Fc1ccc(C#CC2CC2)cc1-c1nnc(-c2cn(CC3OCC4(CC4)CO3)nn2)o1 [Compound I-258] | – | – | 25 to 50%
41 | Cc1cc(C#CC2CC2)ccc1-c1nnc(-c2cn(CC(=O)N(C)C)nn2)o1 [Compound I-259] | – | – | ≤ 25%
42 | Cc1ccc(C#CC2CC2)cc1-c1nnc(-c2cn(CC(=O)N(C)C)nn2)o1 [Compound I-260] | – | – | ≤ 25%
43 | CN(C)C(=O)Cn1cc(-c2nnc(-c3ccc(C#CC4CC4)cc3F)o2)nn1 [Compound I-261] | – | – | ≤ 25%
44 | CN(C)C(=O)Cn1cc(-c2nnc(-c3cc(C#CC4CC4)ccc3F)o2)nn1 [Compound I-262] | – | – | ≤ 25%
45 | Cc1ccc(C#CC2CC2)cc1C(F)(F)c1cn(CC(=O)N(C)C)nn1 [Compound I-263] | – | 25 to 50% | –
46 | Cc1ccc(C#CC2CC2)cc1C(F)(F)c1cn(CC2OCC3(CC3)CO2)nn1 [Compound I-264] | – | > 75% | –
47 | N=C(N)c1cnc(-c2cn(CC3OCC4(CC4)CO3)nn2)c(OC2CC2)c1 [Compound I-265] | – | – | 25 to 50%
48 | CN1CCN(C(=O)Cn2cc(-c3ncc(C#CC4CC4)cc3OC3CC3)nn2)CC1 [Compound I-266] | – | – | 25 to 50%
49 | O=C(Cn1cc(-c2ncc(C#CC3CC3)cc2OC2CC2)nn1)N1CCCCC1 [Compound I-267] | – | – | > 75%
50 | O=C(Cn1cc(-c2ncc(C#CC3CC3)cc2OC2CC2)nn1)N1CCOCC1 [Compound I-268] | – | – | 25 to 50%
